Measurements as given in patent US11051515B2, “3-acyl-benzamides and their use as herbicides” (Bayer Aktiengesellschaft, priority 2017, dated 2021).

Columns and labels:
VIOTR [1] = assay: Pre-emergence action against VIOTR; type: in vivo, Viola tricolor; conditions: Dosage 320 g/ha, pre-emergence
Method in brief: (§1)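 Seeds sown in sandy loam in wood-fiber pots and covered with soil. Greenhouse growth; visual damage scored after 3 weeks versus untreated controls (100% = dead, 0% = like control).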

ECHCG [2] = assay: Post-emergence action against ECHCG; type: in vivo, Echinochloa crus-galli; conditions: post-emergence, dosage 80 g/ha, visual assessment about 3 weeks after treatment vs untreated controls
Method in brief: (§2)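 Weeds grown in sandy loam in greenhouse, treated at one-leaf stage (2–3 weeks after sowing) with WP or EC formulations sprayed as aqueous suspension/emulsion at 600 to […] water with 0.2% wetting agent. Visual rating after about 3 weeks versus untreated controls, as % herbicidal action (100% = plants dead, 0% = like control).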

ALOMY = assay: Pre-emergence action against ALOMY; type: in vivo, Alopecurus myosuroides; conditions: dosage 320 g/ha, pre-emergence, scored visually after 3 weeks vs untreated controls, 100% = plants have died, 0% = like control plants
Method in brief: as §1

SETVI [3] = assay: Pre-emergence action against SETVI; type: in vivo, Setaria viridis; conditions: pre-emergence, dosage 320 g/ha, scored visually after 3 weeks vs untreated controls
Method in brief: as §1

POLCO [4] = assay: Post-emergence action against POLCO; type: in vivo, Polygonum convolvulus; conditions: post-emergence, dosage 80 g/ha
Description: Seeds of monocotyledonous and dicotyledonous weed and crop plants are laid out in sandy loam soil in wood-fiber pots, covered with soil and cultivated in a greenhouse under good growth conditions. 2 to 3 weeks after sowing, the test plants are treated at the one-leaf stage. The compounds of the invention, formulated in the form of wettable powders (WP) or as emulsion concentrates (EC), are then sprayed onto the green parts of the plants in the form of an aqueous suspension or emulsion at a water application rate equating to […], with addition of 0.2% wetting agent. After the test plants have been left to stand in the greenhouse under optimal growth conditions for about 3 weeks, the action of the preparations is assessed visually in comparison to untreated controls (herbicidal action in percent (%): 100% activity=the plants have died, 0% activity=like control plants). […] At the same time, inventive compounds leave Gramineae crops such as barley, wheat, rye, millet/Sorghum, corn or rice virtually undamaged when applied post-emergence, even at high active ingredient dosages. In addition, some substances are also harmless to dicotyledonous crops such as soya, cotton, oilseed rape, sugar beet or potatoes. Some of the compounds according to the invention have high selectivity and are therefore suitable for controlling unwanted vegetation in agricultural crops by the post-emergence method. The data of Tables B18 to B34 below illustrate, in an exemplary manner, the […] herbicidal action of the compounds according to the invention, the herbicidal activity being stated in percent.

AMARE [5] = assay: Pre-emergence action against AMARE; type: in vivo, Amaranthus retroflexus; conditions: pre-emergence, dosage 320 g/ha, scored visually after 3 weeks vs untreated controls
Method in brief: as §1

MATIN [6] = assay: Post-emergence action against MATIN; type: in vivo, Matricaria inodora; conditions: post-emergence, dosage 80 g/ha, visual assessment about 3 weeks after treatment vs untreated controls
Method in brief: as §2

AMARE [7] = assay: Post-emergence action against AMARE; type: in vivo, Amaranthus retroflexus; conditions: post-emergence, dosage 80 g/ha, visual assessment about 3 weeks after treatment vs untreated controls
Method in brief: as §2

POLCO [8] = assay: Pre-emergence action against POLCO; type: in vivo, Polygonum convolvulus; conditions: Dosage 320 g/ha, pre-emergence
Excerpt: Seeds of monocotyledonous and dicotyledonous weed plants and crop plants are laid out in sandy loam soil in wood-fiber pots and covered with soil. The compounds of the invention, formulated in the form of wettable powders (WP) or as emulsion concentrates (EC), are then applied to the surface of the covering soil in the form of an aqueous suspension or emulsion at a water application rate equating to […], with addition of 0.2% wetting agent. After the treatment, the pots are placed in a greenhouse and kept under good growth conditions for the trial plants. The damage to the test plants is scored visually after a test period of 3 weeks by comparison with untreated controls (herbicidal activity in percent (%): 100% activity=the plants have died, 0% activity=like control plants).

STEME [9] = assay: Post-emergence action against STEME; type: in vivo, Stellaria media; conditions: post-emergence, dosage 80 g/ha
Method in brief: as §2

STEME [10] = assay: Pre-emergence action against STEME; type: in vivo, Stellaria media; conditions: Dosage 320 g/ha, pre-emergence
Method in brief: as §1

ABUTH [11] = assay: Pre-emergence action against ABUTH; type: in vivo, Abutilon theophrasti; conditions: pre-emergence, dosage 320 g/ha, scored visually after 3 weeks vs untreated controls
Method in brief: as §1

ECHCG [12] = assay: Pre-emergence action against ECHCG; type: in vivo, Echinochloa crus-galli; conditions: pre-emergence, dosage 320 g/ha, scored visually after 3 weeks vs untreated controls
Method in brief: as §1

VIOTR [13] = assay: Post-emergence action against VIOTR; type: in vivo, Viola tricolor; conditions: post-emergence, dosage 80 g/ha
Method in brief: as §2

PHBPU [14] = assay: Post-emergence action against PHBPU; type: in vivo, Pharbitis purpurea; conditions: post-emergence, dosage 80 g/ha
Method in brief: as §2

ABUTH [15] = assay: Post-emergence action against ABUTH; type: in vivo, Abutilon theophrasti; conditions: post-emergence, dosage 80 g/ha, visual assessment about 3 weeks after treatment vs untreated controls
Method in brief: as §2

MATIN [16] = assay: Pre-emergence action against MATIN; type: in vivo, Matricaria inodora; conditions: Dosage 320 g/ha, pre-emergence
Method in brief: as §1

SETVI [17] = assay: Post-emergence action against SETVI; type: in vivo, Setaria viridis; conditions: post-emergence, dosage 80 g/ha, visual assessment about 3 weeks after treatment vs untreated controls
Method in brief: as §2

VERPE [18] = assay: Post-emergence action against VERPE; type: in vivo, Veronica persica; conditions: dosage 80 g/ha
Method in brief: as §2

VERPE [19] = assay: Pre-emergence action against VERPE; type: in vivo, Veronica persica; conditions: Dosage 320 g/ha, pre-emergence
Method in brief: as §1

AVEFA = assay: Pre-emergence action against AVEFA; type: in vivo, Avena fatua; conditions: dosage 320 g/ha, scored visually after 3 weeks vs untreated controls
Method in brief: as §1

CYPES = assay: Pre-emergence action against CYPES; type: in vivo, Cyperus esculentus; conditions: pre-emergence, dosage 320 g/ha, scored visually after 3 weeks vs untreated controls
Method in brief: as §1

PHBPU [20] = assay: Pre-emergence action against PHBPU; type: in vivo, Pharbitis purpurea; conditions: Dosage 320 g/ha, pre-emergence
Method in brief: as §1

CC(=O)c1c(C)ccc(C(=O)Nc2nnnn2C)c1C [1-1]
pest or weed control at 320 g/ha (VIOTR [1]; Viola tricolor, 504 h): 100% | pest or weed control at 80 g/ha (ECHCG [2]; Echinochloa crus-galli, 504 h, read-out: Post-emergence action against ECHCG (herbicidal action in percent)): 100% | pest or weed control at 320 g/ha (ALOMY; Alopecurus myosuroides, 504 h, read-out: Pre-emergence action against ALOMY (herbicidal activity in percent)): 80% | pest or weed control at 320 g/ha (SETVI [3]; Setaria viridis, 504 h, read-out: SETVI (Table B8, pre-emergence herbicidal activity)): 90% | pest or weed control at 80 g/ha (POLCO [4]; Fallopia convolvulus, 504 h): 80% | pest or weed control at 320 g/ha (AMARE [5]; Amaranthus retroflexus, 504 h, read-out: Pre-emergence action against AMARE (herbicidal activity)): 100% | pest or weed control at 80 g/ha (MATIN [6]; Tripleurospermum inodorum, 504 h, read-out: Post-emergence action against MATIN (herbicidal action in percent)): 80% | pest or weed control at 80 g/ha (AMARE [7]; Amaranthus retroflexus, 504 h, read-out: Post-emergence action against AMARE (herbicidal action in percent)): 100% | pest or weed control at 320 g/ha (POLCO [8]; Fallopia convolvulus, 504 h): 80% | pest or weed control at 80 g/ha (STEME [9]; Stellaria media, 504 h): 100% | pest or weed control at 320 g/ha (STEME [10]; Stellaria media, 504 h): 90% | pest or weed control at 320 g/ha (ABUTH [11]; Abutilon theophrasti, 504 h, read-out: Pre-emergence action against ABUTH (herbicidal activity)): 90% | pest or weed control at 320 g/ha (ECHCG [12]; Echinochloa crus-galli, 504 h, read-out: Pre-emergence action against ECHCG (herbicidal activity)): 90% | pest or weed control at 80 g/ha (VIOTR [13]; Viola tricolor, 504 h): 100% | pest or weed control at 80 g/ha (PHBPU [14]; Ipomoea purpurea, 504 h): 90% | pest or weed control at 80 g/ha (ABUTH [15]; Abutilon theophrasti, 504 h, read-out: Post-emergence action against ABUTH (herbicidal action in percent)): 100% | pest or weed control at 320 g/ha (MATIN [16]; Tripleurospermum inodorum, 504 h): 100%

CCn1nnnc1NC(=O)c1ccc(C)c(C(C)=O)c1Cl [2-134]
Post-emergence action against ECHCG (herbicidal action in percent) (ECHCG [2]): 90% | Post-emergence action against POLCO (POLCO [4]): 80 | Pre-emergence action against AMARE (herbicidal activity) (AMARE [5]): 100% | Post-emergence action against MATIN (herbicidal action in percent) (MATIN [6]): 90% | Post-emergence action against AMARE (herbicidal action in percent) (AMARE [7]): 90% | Post-emergence action against SETVI (herbicidal action in percent) (SETVI [17]): 80% | Post-emergence action against STEME (STEME [9]): 100 | Pre-emergence action against STEME (STEME [10]): 90% | Pre-emergence action against ECHCG (herbicidal activity) (ECHCG [12]): 80% | Post-emergence action against VIOTR (VIOTR [13]): 100 | Post-emergence action against VERPE (VERPE [18]): 90 | Post-emergence action against PHBPU (PHBPU [14]): 80 | Pre-emergence action against VERPE (VERPE [19]): 100% | Pre-emergence action against MATIN (MATIN [16]): 90%

CCn1nnnc1NC(=O)c1ccc(Cl)c(C(=O)C(C)C)c1Cl [2-280]
Post-emergence action against ECHCG (herbicidal action in percent) (ECHCG [2]): 90% | Pre-emergence action against ALOMY (herbicidal activity in percent) (ALOMY): 100% | Post-emergence action against POLCO (POLCO [4]): 80 | Pre-emergence action against AMARE (herbicidal activity) (AMARE [5]): 100% | Post-emergence action against MATIN (herbicidal action in percent) (MATIN [6]): 90% | Post-emergence action against AMARE (herbicidal action in percent) (AMARE [7]): 100% | Post-emergence action against SETVI (herbicidal action in percent) (SETVI [17]): 90% | Pre-emergence action against POLCO (POLCO [8]): 80% | Post-emergence action against STEME (STEME [9]): 100 | Pre-emergence action against STEME (STEME [10]): 90% | Pre-emergence action against ABUTH (herbicidal activity) (ABUTH [11]): 100% | Pre-emergence action against ECHCG (herbicidal activity) (ECHCG [12]): 100% | Post-emergence action against VIOTR (VIOTR [13]): 90 | Post-emergence action against PHBPU (PHBPU [14]): 100 | Post-emergence action against ABUTH (herbicidal action in percent) (ABUTH [15]): 90% | Pre-emergence action against VERPE (VERPE [19]): 90% | Pre-emergence action against MATIN (MATIN [16]): 100%

CCCn1nnnc1NC(=O)c1ccc(C(F)(F)F)c(C(C)=O)c1Cl [3-137]
Pre-emergence action against VIOTR (VIOTR [1]): 100% | Post-emergence action against ECHCG (herbicidal action in percent) (ECHCG [2]): 90% | Pre-emergence action against ALOMY (herbicidal activity in percent) (ALOMY): 90% | SETVI (Table B8, pre-emergence herbicidal activity) (SETVI [3]): 90% | Pre-emergence action against AVEFA (herbicidal activity) (AVEFA): 80% | Post-emergence action against POLCO (POLCO [4]): 90 | Pre-emergence action against AMARE (herbicidal activity) (AMARE [5]): 100% | Post-emergence action against MATIN (herbicidal action in percent) (MATIN [6]): 100% | Post-emergence action against AMARE (herbicidal action in percent) (AMARE [7]): 100% | Post-emergence action against SETVI (herbicidal action in percent) (SETVI [17]): 100% | Post-emergence action against STEME (STEME [9]): 100 | Pre-emergence action against STEME (STEME [10]): 100% | Pre-emergence action against CYPES (herbicidal activity) (CYPES): 90% | Pre-emergence action against PHBPU (PHBPU [20]): 100% | Pre-emergence action against ABUTH (herbicidal activity) (ABUTH [11]): 100% | Pre-emergence action against ECHCG (herbicidal activity) (ECHCG [12]): 100% | Post-emergence action against VIOTR (VIOTR [13]): 100 | Post-emergence action against VERPE (VERPE [18]): 90 | Post-emergence action against PHBPU (PHBPU [14]): 100 | Post-emergence action against ABUTH (herbicidal action in percent) (ABUTH [15]): 90% | Pre-emergence action against VERPE (VERPE [19]): 90% | Pre-emergence action against MATIN (MATIN [16]): 100%
